Tested on: Egr-1 mRNA
Assay: Northern blot analysis of Egr-1 mRNA induction in quiescent primary human fibroblasts
Type: cell-based
Method: Quiescent human fibroblasts were incubated with TNF (500 units/ml) (a) or OA (500 nM) (b) for 0, 30, 60 min after which total cellular RNA was extracted. Blots of RNA from these cells were hybridized to radiolabeled (10⁶ cpm/ml) Egr-1 cDNA probe. c, the blot in b was stripped and reprobed with c-jun cDNA. Note: Egr-1 mRNA probe was not completely stripped from the blot. The autoradiograph of the blot is presented. d, regularly maintained cells were incubated wither with no additions (control, 0 time) or with OA for 1, 3, 5, 7 h and Northern analysis was carried out with an IL-6 cDNA probe (ATCC, Rockville, MD, US).
10 µg of RNA was applied to each lane and subjected to Northern blot analysis using an Egr-1 specific cDNA probe [1.6 kb Bgl II fragment (Sukhatme et al, Cell 53, 37-48, 1988)]. The same blots were rehybridized with actin or GADPH cDNA for normalizing the amount of RNA loaded. The blots were dried and autoradiographed. • (A). Time course of okadaic acid-induced Egr-1 and c-jun messages in primary human fibroblasts. Quiescent human fibroblasts were induced with 1 µM of okadaic acid for the time periods indicated. […] Time course of okadaic acid-induced Egr-1 message in Balb/c 3T3 cells. Quiescent Balb/c 3T3 cells were induced with okadaic acid (0.5µM) for the times indicated. • (C). Concentration dependent induction of Egr-1 message by okadaic acid in Balb/c 3T3 cells. Quiescent Balb/c 3T3 cells were induced with the indicated concentrations of okadaic acid for 1 h. As controls, different concentrations of DMSO were included. These corresponded to the amounts present in 0.25 µM okadaic acid (0.025% dimethyl sulphoxide (DMSO)) 0.5 µM okadaic acid (0.05% DMSO) and 1 µM okadaic acid (0.1%). • (D). Concentration dependent and time course induction of Egr-1 message by calyculin A. Quiescent Balb/c 3T3 cells were induced with different concentrations of calyculin A for 1 h. Northern analysis of this dose-dependent induction by calyculin A is shown on the left panel of the figure. […] Northern analysis of this time course induction by calyculin A is shown in the right panel of the figure. The same blot was rehybridized with pCMV-fos (Curran et al, Oncogene 2, 79-84, 1987) and pCMV-jun (Rauscher et al, 1988) shown in the middle panel. The blot was dried and autoradiographed.
Cells were incubated with either 0.5 µM of okadaic acid or 10 µg/ml of cycloheximide as well as with 0.5 µM of okadaic acid and 10 µg/ml of cycloheximide for 1.5, 3 or 6 h. Cells were harvested, RNA isolated and subjected to Northern blot analysis. The blot was probed with Egr-1 or actin cDNA.
Quiescent primary human fibroblasts were incubated with okadaic acid (OA) or TPA for 1 or 3 h. The concentrations of OA and TPA were 0.5 µM and 120 ng/ml, respectively. The concentration of 1-(5-isoquinolinylsulfonyl)-2-methylpiperazine dihydrochloride (H7) and N-(2-guanidinoethyl)-5-isoquinolinesulphonamide dihydrochloride (HA1004) used was 25 µM. The cells were pre-treated for 15 min with H7 or HA1004 before they were induced by OA or TPA for 1 or 3 h. Cells were harvested, RNA was isolated and subjected to Northern blot analysis. The blot was probed with Egr-1 or GADPH cDNA. • (B). As a positive control, primary human fibroblasts were treated with TPA (30 ng/ml) for 1 h (1st lane). The fibroblasts were also pre-treated with H7 (25 µM) or HA1004 (25 µM) for 15 min before treatment with TPA for 1 h (2nd and 3rd lanes respectively). […] The blot was probed with Egr-1 or actin cDNA. • (C). Quiescent Balb/c 3T3 cells were incubated with OA, TPA or dBt-cAMP for 1 h or pre-treated with H7 (25 µM) or HA1004 (25 µM) for 15 min and then incubated with each of the agonists for 1 h. Cells were harvested, RNA was isolated and subjected to Northern blot analysis. […]

C=C1[C@@H](O)[C@@H]2O[C@]3(CC[C@H](/C=C/[C@@H](C)[C@@H]4CC(C)=C[C@@]5(O[C@H](C[C@@](C)(O)C(=O)O)CC[C@H]5O)O4)O3)CC[C@H]2O[C@@H]1[C@@H](O)C[C@H](C)[C@H]1O[C@@]2(CCCCO2)CC[C@H]1C [okadaic acid]
time for which the Egr-1 mRNA level is maintained (1 µM): up to 7 h | time of maximal induction of Egr-1 mRNA (1 µM): about 2 h | time to induction of Egr-1 mRNA (1 µM, Example 2): ≤ 1 h | fold induction at 1 µM (Homo sapiens, Fibroblast, read-out: Egr-1 mRNA level over control): 30 to 40 | time to induction of Egr-1 (OA 500 nM, Example 1): ≤ 30 min

— patent publication EP0551200A1, “Protein phosphatase inhibitors for use in therapy” (priority 1992, dated 1993)
